Test results from patent US10781229B2, “Tris- or neopentyl glycol-based amphiphiles and uses thereof” (Industry-University Cooperation Foundation Hanyang …, priority 2015, dated 2020).

How the values were obtained:
MelBEc = target: T1, MelBEc (Escherichia coli, UniProt P02921); test: Trp to D2G FRET reversal by melibiose, functional state of solubilized MelBEc; type: biochemical; settings: 1.0% by weight, solubilized at 23° C. for 30 minutes
T1 construct: made in house; host or cells: E. coli DW2, right-side-out membrane vesicles
Procedure: So as to investigate functional states of MelB proteins dissolved by amphipathic molecules, Førster resonance energy transfer (FRET) to 2′-(N-dansyl)aminoalkyl-1-thio-β-D-galactopyranoside (D^2G), as a fluorescence ligand, was measured in tryptophan (Trp). […] However, if a protein dissolved by an amphipathic molecule has activity, melibiose substitutes for the coupled D^2G molecule upon addition of the melibiose and thus energy transfer no longer occurs, thereby decreasing fluorescence intensity. Accordingly, the activity of the MelB protein dissolved in DDM or NDT-C11 can be determined by whether reversal of D^2G FRET occurs due to melibiose in Trp. Therefore, the FRET measurement method is an efficient method to measure the membrane protein structural stabilization ability of an amphipathic molecule.
In particular, a right-side-out (RSO) membrane vesicle was prepared by osmotic lysis of an E. coli DW2 cell containing MelBSt or MelBEc and re-suspended with 100 mM KPi (pH 7.5), followed by storing at −80° C. D^2G was provided by H. Ronald Kaback and Gerard Leblanc. A protein concentration of an RSO membrane vesicle in 100 mM KPi, pH 7.5, and 50 mM NaCl was 1 mg/ml concentration. […] An emission wavelength of MelBEc was measured at 465 nm and an emission wavelength of MelBSt was measured at 490 nm. […] Accordingly, fluorescence intensity is decreased. […]

[1] = target: T2, melibiose permease (MelB), MelBSt (Salmonella typhimurium, UniProt P30878); test: MelB extraction efficiency and stability by SDS-PAGE and western immunoblotting; settings: 1.5% by weight, 55° C., 90 minutes
T2 construct: made in house; host or cells: 'Salmonella typhimurium DW2 cell (melB and lacZY)', plasmid pK95AHB/WT MelBSt/CH10
Procedure: Experiments to measure the extraction efficiency and structural stability of a Salmonella typhimurium melibiose permease (MelB) protein by TDTs or NDTs were conducted. The MelB protein was extracted using TDTs, NDTs, or DDM and then the amounts and structures of extracted proteins were quantitatively analyzed by SDS-PAGE and western immunoblotting. The concentrations of the used amphipathic molecules were 1.5% by weight. Protein extraction was carried out at four temperatures (0, 45, 55 or 65° C.) for 90 minutes to simultaneously evaluate the protein extraction efficiency and stabilization ability of the amphipathic molecules.
In particular, in accordance with a method disclosed in a paper (P. S. Chae, et al., Chemistry. 2013, 19, 15645-15651) published by the present inventors, a protein (MelBSt) was produced using a pK95AHB/WT MelBSt/CH10 plasmid and a Salmonella typhimurium DW2 cell (melB and lacZY) to encode wild-type MelB having a 10-His tag at a C-terminal. In accordance with a method disclosed in a paper (Nat. Commun. 2014, 5, 3009) published by A. S. Ethayathulla, et al., cell proliferation and membrane preparation was carried out. Protein analysis was performed using a Micro BCA kit (Thermo Scientific, Rockford, Ill.). So as to measure the solubilization/stability of MelBSt, a membrane sample including MelBSt (final protein concentration of 10 mg/mL) was mixed with a solubilization buffer (20 mM sodium phosphate, pH 7.5, 200 mM NaCl, 10% glycerol, and 20 mM melibiose) and 1.5% (w/v) DDM, TDTs or NDTs. An extracted product was incubated at four temperatures (0, 45, 55 and 65° C.) for 90 minutes. Ultracentrifugation was carried out for 45 minutes at 4° C. and 355,590 g by means of a Beckman Optima™ MAX ultracentrifuge and a TLA-100 rotor. Subsequently, 20 μg of a protein was separated by SDS-16% PAGE and then subjected to immunoblotting with a Penta-His-HRP antibody (Qiagen, Germantown, Md.).

T2 sequence (P30878 whole entry): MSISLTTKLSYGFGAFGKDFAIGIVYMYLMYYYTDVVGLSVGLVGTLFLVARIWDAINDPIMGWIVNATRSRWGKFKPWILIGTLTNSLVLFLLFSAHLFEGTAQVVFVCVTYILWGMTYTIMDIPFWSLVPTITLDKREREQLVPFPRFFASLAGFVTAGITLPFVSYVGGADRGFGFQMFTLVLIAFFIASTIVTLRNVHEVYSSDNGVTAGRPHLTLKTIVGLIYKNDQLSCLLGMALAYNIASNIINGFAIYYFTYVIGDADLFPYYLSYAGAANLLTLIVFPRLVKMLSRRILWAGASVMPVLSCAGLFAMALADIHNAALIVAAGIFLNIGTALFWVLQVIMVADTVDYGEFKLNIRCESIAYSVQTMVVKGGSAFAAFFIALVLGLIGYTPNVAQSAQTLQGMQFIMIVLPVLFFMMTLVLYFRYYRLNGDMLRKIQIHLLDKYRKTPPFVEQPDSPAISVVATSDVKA
T1 sequence (P02921 whole entry): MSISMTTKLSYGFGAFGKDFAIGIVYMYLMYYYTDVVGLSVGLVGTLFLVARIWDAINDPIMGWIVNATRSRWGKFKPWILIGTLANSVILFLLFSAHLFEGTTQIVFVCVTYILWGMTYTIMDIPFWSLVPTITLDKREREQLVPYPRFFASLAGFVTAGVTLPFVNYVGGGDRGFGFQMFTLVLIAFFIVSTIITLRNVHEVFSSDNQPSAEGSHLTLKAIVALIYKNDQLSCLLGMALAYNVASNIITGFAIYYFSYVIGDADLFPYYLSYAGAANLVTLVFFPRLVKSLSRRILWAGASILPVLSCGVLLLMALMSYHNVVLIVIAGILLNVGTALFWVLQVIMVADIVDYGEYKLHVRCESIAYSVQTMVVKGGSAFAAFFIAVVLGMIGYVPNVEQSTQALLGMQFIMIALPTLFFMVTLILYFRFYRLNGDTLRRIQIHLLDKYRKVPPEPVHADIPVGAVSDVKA

| SMILES | Functional state of solubilized MelBEc (melibiose binding, FRET) (MelBEc) | MelB dissolved / solubilization ability [1] |
| --- | --- | --- |
| CCCCCCCCCCCCOC1OC(CO)C(OC2OC(CO)C(O)C(O)C2O)C(O)C1O [DDM, n-dodecyl-β-D-maltopyranoside, reference compound] | completely lost | hardly detected |
| CCCCCCCCCCCC(CCCCCCCCCCC)COCC(CO[C@@H]1OC(CO)[C@@H](O)C(O)C1O)(CO[C@@H]1OC(CO)[C@@H](O)C(O)C1O)CO[C@@H]1OC(CO)[C@@H](O)C(O)C1O (stereo partly shown) [NDT-C11] | effectively maintained | most excellent |
